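Dose response: 5 concentrations. Exposure: 48 h. Format: 96-well plates. Endpoint: linear interpolation; highest concentration if not reached. GI50: concentration for 50% inhibition of growth. TGI is the concentration that stops growth completely.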
Tests used:
Test in all cases: NCI-60 cell line screen, 48 h
786-0 renal = tested on: 786-0 renal
A498 renal = tested on: A498 renal
A549 NSCLC = tested on: A549 NSCLC
ACHN renal = tested on: ACHN renal
BT-549 breast = tested on: BT-549 breast
CAKI-1 renal = tested on: CAKI-1 renal
CCRF-CEM leukemia = tested on: CCRF-CEM leukemia
COLO 205 colon = tested on: COLO 205 colon
DU-145 prostate = tested on: DU-145 prostate
EKVX NSCLC = tested on: EKVX NSCLC
HCC-2998 colon = tested on: HCC-2998 colon
HCT-15 colon = tested on: HCT-15 colon
HL-60(TB) leukemia = tested on: HL-60(TB) leukemia
HOP-62 NSCLC = tested on: HOP-62 NSCLC
HOP-92 NSCLC = tested on: HOP-92 NSCLC
HS 578T breast = tested on: HS 578T breast
HT29 colon = tested on: HT29 colon
IGROV1 ovarian = tested on: IGROV1 ovarian
K-562 leukemia = tested on: K-562 leukemia
KM12 colon = tested on: KM12 colon
LOX IMVI melanoma = tested on: LOX IMVI melanoma
M14 melanoma = tested on: M14 melanoma
MALME-3M melanoma = tested on: MALME-3M melanoma
MCF7 breast = tested on: MCF7 breast
MDA-MB-231 breast = tested on: MDA-MB-231 breast
MDA-MB-435 = tested on: MDA-MB-435
MDA-MB-468 breast = tested on: MDA-MB-468 breast
MOLT-4 leukemia = tested on: MOLT-4 leukemia
NCI-H226 lung = tested on: NCI-H226 lung
NCI-H23 lung = tested on: NCI-H23 lung
NCI-H460 lung = tested on: NCI-H460 lung
NCI-H522 lung = tested on: NCI-H522 lung
NCI/ADR-RES ovarian = tested on: NCI/ADR-RES ovarian
OVCAR-3 ovarian = tested on: OVCAR-3 ovarian
OVCAR-4 ovarian = tested on: OVCAR-4 ovarian
OVCAR-5 ovarian = tested on: OVCAR-5 ovarian
OVCAR-8 ovarian = tested on: OVCAR-8 ovarian
PC-3 prostate = tested on: PC-3 prostate
RPMI-8226 leukemia = tested on: RPMI-8226 leukemia
RXF 393 renal = tested on: RXF 393 renal
SF-268 CNS = tested on: SF-268 CNS
SF-295 CNS = tested on: SF-295 CNS
SF-539 CNS = tested on: SF-539 CNS
SK-MEL-2 melanoma = tested on: SK-MEL-2 melanoma
SK-MEL-28 melanoma = tested on: SK-MEL-28 melanoma
SK-MEL-5 melanoma = tested on: SK-MEL-5 melanoma
SK-OV-3 ovarian = tested on: SK-OV-3 ovarian
SN12C renal = tested on: SN12C renal
SNB-19 CNS = tested on: SNB-19 CNS
SNB-75 CNS = tested on: SNB-75 CNS
SR leukemia = tested on: SR leukemia
SW-620 colon = tested on: SW-620 colon
T-47D breast = tested on: T-47D breast
TK-10 renal = tested on: TK-10 renal
U251 CNS = tested on: U251 CNS
UACC-257 melanoma = tested on: UACC-257 melanoma
UACC-62 melanoma = tested on: UACC-62 melanoma
UO-31 renal = tested on: UO-31 renal

In the case of `CC1=C2C(=C[C@@](C)(COP(=O)(Oc3ccccc3)Oc3ccccc3)[C@@H]2O)C(=O)[C@@](C)(O)C12CC2`, the GI50 (786-0 renal) is reported as 284 nM, the TGI (786-0 renal) is reported as 857 nM and the GI50 (A498 renal) is reported as 1150 nM. The TGI (A498 renal) was 4090 nM, the GI50 (A549 NSCLC) was 781 nM and the TGI (A549 NSCLC) was 3290 nM. It also gave a GI50 (ACHN renal) of 232 nM, a TGI (ACHN renal) of 686 nM and a GI50 (BT-549 breast) of 211 nM. The TGI (BT-549 breast) was 614 nM, the GI50 (CAKI-1 renal) was 289 nM and the TGI (CAKI-1 renal) was 2170 nM. The GI50 (CCRF-CEM leukemia) was 1880 nM, the TGI (CCRF-CEM leukemia) was greater than 39800 nM and the GI50 (COLO 205 colon) was 530 nM. The TGI (COLO 205 colon) was 1200 nM, the GI50 (DU-145 prostate) was 332 nM and the TGI (DU-145 prostate) was 1340 nM. For the same compound, the GI50 (EKVX NSCLC) was 641 nM, the TGI (EKVX NSCLC) was 1800 nM and the GI50 (HCC-2998 colon) was 216 nM. It also gave a TGI (HCC-2998 colon) of 639 nM, a GI50 (HCT-15 colon) of 208 nM and a TGI (HCT-15 colon) of 875 nM. The GI50 (HL-60(TB) leukemia) was 213 nM, the TGI (HL-60(TB) leukemia) was 1280 nM and the GI50 (HOP-62 NSCLC) was 408 nM. The TGI (HOP-62 NSCLC) was 1280 nM, the GI50 (HOP-92 NSCLC) was 574 nM and the TGI (HOP-92 NSCLC) was 1580 nM. The GI50 (HS 578T breast) was 1010 nM, the TGI (HS 578T breast) was 4460 nM and the GI50 (HT29 colon) was 201 nM. The TGI (HT29 colon) was 705 nM, the GI50 (IGROV1 ovarian) was 399 nM and the TGI (IGROV1 ovarian) was 1240 nM. For the same compound, the GI50 (K-562 leukemia) was 1560 nM, the TGI (K-562 leukemia) was greater than 69500 nM and the GI50 (KM12 colon) was 628 nM. The TGI (KM12 colon) was 5820 nM, the GI50 (LOX IMVI melanoma) was 218 nM and the TGI (LOX IMVI melanoma) was 703 nM. The GI50 (M14 melanoma) was 551 nM, the TGI (M14 melanoma) was 1310 nM and the GI50 (MALME-3M melanoma) was 382 nM. The TGI (MALME-3M melanoma) was 1000 nM, the GI50 (MCF7 breast) was 141 nM and the TGI (MCF7 breast) was 4690 nM. It also gave a GI50 (MDA-MB-231 breast) of 351 nM, a TGI (MDA-MB-231 breast) of 1030 nM and a GI50 (MDA-MB-435) of 637 nM. For the same compound, the TGI (MDA-MB-435) was 2060 nM, the GI50 (MDA-MB-468 breast) was 147 nM and the TGI (MDA-MB-468 breast) was 503 nM. It also gave a GI50 (MOLT-4 leukemia) of 439 nM, a TGI (MOLT-4 leukemia) of 14600 nM and a GI50 (NCI-H226 lung) of 723 nM. The TGI (NCI-H226 lung) was 3840 nM, the GI50 (NCI-H23 lung) was 158 nM and the TGI (NCI-H23 lung) was 384 nM. The GI50 (NCI-H460 lung) was 234 nM, the TGI (NCI-H460 lung) was 744 nM and the GI50 (NCI-H522 lung) was 223 nM. For the same compound, the TGI (NCI-H522 lung) was 655 nM, the GI50 (NCI/ADR-RES ovarian) was 236 nM and the TGI (NCI/ADR-RES ovarian) was 778 nM. For the same compound, the GI50 (OVCAR-3 ovarian) was 286 nM, the TGI (OVCAR-3 ovarian) was 1080 nM and the GI50 (OVCAR-4 ovarian) was 355 nM. The TGI (OVCAR-4 ovarian) was 1470 nM, the GI50 (OVCAR-5 ovarian) was 359 nM and the TGI (OVCAR-5 ovarian) was 1340 nM. The GI50 (OVCAR-8 ovarian) was 286 nM, the TGI (OVCAR-8 ovarian) was 1090 nM and the GI50 (PC-3 prostate) was 397 nM. For the same compound, the TGI (PC-3 prostate) was 2340 nM, the GI50 (RPMI-8226 leukemia) was 4560 nM and the TGI (RPMI-8226 leukemia) was 38900 nM. The GI50 (RXF 393 renal) was 188 nM, the TGI (RXF 393 renal) was 493 nM and the GI50 (SF-268 CNS) was 350 nM. It also gave a TGI (SF-268 CNS) of 1500 nM, a GI50 (SF-295 CNS) of 294 nM and a TGI (SF-295 CNS) of 1230 nM. For the same compound, the GI50 (SF-539 CNS) was 327 nM, the TGI (SF-539 CNS) was 886 nM and the GI50 (SK-MEL-2 melanoma) was 246 nM. It also gave a TGI (SK-MEL-2 melanoma) of 596 nM, a GI50 (SK-MEL-28 melanoma) of 681 nM and a TGI (SK-MEL-28 melanoma) of 1690 nM. It also gave a GI50 (SK-MEL-5 melanoma) of 219 nM, a TGI (SK-MEL-5 melanoma) of 609 nM and a GI50 (SK-OV-3 ovarian) of 357 nM. It also gave a TGI (SK-OV-3 ovarian) of 1310 nM, a GI50 (SN12C renal) of 521 nM and a TGI (SN12C renal) of 1550 nM. It also gave a GI50 (SNB-19 CNS) of 630 nM, a TGI (SNB-19 CNS) of 4930 nM and a GI50 (SNB-75 CNS) of 477 nM. The TGI (SNB-75 CNS) was 1270 nM, the GI50 (SR leukemia) was 402 nM and the TGI (SR leukemia) was 25100 nM. The GI50 (SW-620 colon) was 1700 nM, the TGI (SW-620 colon) was 18300 nM and the GI50 (T-47D breast) was 946 nM. For the same compound, the TGI (T-47D breast) was 5190 nM, the GI50 (TK-10 renal) was 854 nM and the TGI (TK-10 renal) was 3090 nM. It also gave a GI50 (U251 CNS) of 249 nM, a TGI (U251 CNS) of 1360 nM and a GI50 (UACC-257 melanoma) of 792 nM. The TGI (UACC-257 melanoma) was 2310 nM, the GI50 (UACC-62 melanoma) was 312 nM and the TGI (UACC-62 melanoma) was 804 nM. It also gave a GI50 (UO-31 renal) of 460 nM and a TGI (UO-31 renal) of 1270 nM.
